Test results published in ChEMBL document CHEMBL1133249, “Combined tachykinin receptor antagonist: synthesis and stereochemical structure-activity relationships of novel morpholine analogues” (Bioorg Med Chem Lett, 2000).

How the values were obtained:
Substance-K receptor = molecular target: T1, Substance-K receptor (Cavia porcellus, UniProt Q64077); assay: The compound was evaluated in vitro for its ability to displace [3H]SP from Tachykinin receptor 2 of male guinea pig lung membrane; assay type: tissue-based
T1 sequence (Q64077 whole entry): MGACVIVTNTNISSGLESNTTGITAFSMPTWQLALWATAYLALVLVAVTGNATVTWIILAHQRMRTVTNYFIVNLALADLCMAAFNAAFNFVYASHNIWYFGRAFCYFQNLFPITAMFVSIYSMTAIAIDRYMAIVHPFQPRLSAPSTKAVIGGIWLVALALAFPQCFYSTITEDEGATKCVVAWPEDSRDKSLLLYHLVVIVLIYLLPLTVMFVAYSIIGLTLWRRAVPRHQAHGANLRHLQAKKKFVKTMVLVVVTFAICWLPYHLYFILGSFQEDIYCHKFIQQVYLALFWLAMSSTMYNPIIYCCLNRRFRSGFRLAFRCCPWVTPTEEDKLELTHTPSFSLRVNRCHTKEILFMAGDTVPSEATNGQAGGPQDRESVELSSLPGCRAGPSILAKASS

Neuromedin-K receptor = molecular target: T2, Neuromedin-K receptor (Cavia porcellus, UniProt P30098); assay: The compound was evaluated in vitro for its ability to displace [3H]SP from Tachykinin receptor 3 of male guinea pig lung membrane; assay type: tissue-based
T2 sequence (P30098 whole entry): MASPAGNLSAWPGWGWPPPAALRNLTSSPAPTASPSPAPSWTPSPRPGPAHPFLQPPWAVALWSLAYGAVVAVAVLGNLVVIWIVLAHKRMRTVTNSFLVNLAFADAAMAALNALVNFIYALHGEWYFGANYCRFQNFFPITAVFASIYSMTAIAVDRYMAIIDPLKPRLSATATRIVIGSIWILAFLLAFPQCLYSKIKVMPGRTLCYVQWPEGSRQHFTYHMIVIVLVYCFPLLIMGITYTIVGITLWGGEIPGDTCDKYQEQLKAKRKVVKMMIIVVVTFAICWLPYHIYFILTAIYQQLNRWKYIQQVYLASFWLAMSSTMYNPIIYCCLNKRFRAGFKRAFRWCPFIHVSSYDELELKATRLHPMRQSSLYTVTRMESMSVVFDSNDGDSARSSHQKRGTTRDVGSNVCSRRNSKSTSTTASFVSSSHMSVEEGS

Substance-P receptor = Substance-P receptor (Cavia porcellus, UniProt P30547); assay: The compound was evaluated in vitro for its ability to displace [3H]SP from Tachykinin receptor 1 of male guinea pig lung membrane; assay type: tissue-based
Sequence of Substance-P receptor (P30547 whole entry): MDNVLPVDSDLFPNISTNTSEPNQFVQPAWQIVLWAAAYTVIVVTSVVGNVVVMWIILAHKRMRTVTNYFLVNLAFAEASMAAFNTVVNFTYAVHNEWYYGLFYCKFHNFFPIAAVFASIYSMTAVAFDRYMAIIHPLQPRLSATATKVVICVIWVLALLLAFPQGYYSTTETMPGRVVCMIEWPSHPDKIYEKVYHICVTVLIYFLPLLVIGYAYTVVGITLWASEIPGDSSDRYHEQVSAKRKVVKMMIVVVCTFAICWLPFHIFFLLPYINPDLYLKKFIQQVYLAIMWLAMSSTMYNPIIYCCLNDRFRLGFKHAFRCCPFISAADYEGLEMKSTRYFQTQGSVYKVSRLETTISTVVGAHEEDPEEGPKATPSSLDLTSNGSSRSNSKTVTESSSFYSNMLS

Cavia porcellus [1] = assay: Inhibitory effect was evaluated after intravenous administration on bronchoconstriction induced by NKB receptor in guinea pigs; assay type: functional; details: read-out: ID50 (the source's name)
Cavia porcellus [2] = assay: Inhibitory effect was evaluated after intravenous administration on bronchoconstriction induced by NKA receptor in guinea pigs; assay type: functional; details: read-out: ID50 (the source's name)
Cavia porcellus [3] = assay: Inhibitory effect of compound was evaluated after intravenous administration on SP-induced plasma protein extravasation, mediated by NK1 receptors in guinea pig airways; assay type: functional; details: read-out: ID50 (the source's name)

Row | Compound | IC50 (Substance-K receptor) [nM] | IC50 (Neuromedin-K receptor) [nM] | IC50 (Substance-P receptor) [nM] | ED50 (Cavia porcellus [1]) [mg/kg] | ED50 (Cavia porcellus [2]) [mg/kg] | ED50 (Cavia porcellus [3]) [mg/kg]
1 | COc1cc(C(=O)N2CCO[C@](CCN3CCC4(CC3)c3ccccc3C[S@@+]4[O-])(c3ccc(Cl)c(Cl)c3)C2)cc(OC)c1OC | 59 | 11 | 220 |  |  | 
2 | COc1cc(C(=O)N2CCO[C@@](CCN3CCC4(CC3)c3ccccc3C[S@+]4[O-])(c3ccc(Cl)c(Cl)c3)C2)cc(OC)c1OC | > 1000 | 520 | > 1000 |  |  | 
3 | COc1cc(C(=O)N2CCO[C@](CCN3CCC4(CC3)c3ccccc3C[S@+]4[O-])(c3ccc(Cl)c(Cl)c3)C2)cc(OC)c1OC | 3.1 | 0.72 | 21 |  |  | 
4 | COc1cc(C(=O)N2CCO[C@](CCN3CCC4(CC3)c3ccccc3C[C@@H]4O)(c3ccc(Cl)c(Cl)c3)C2)cc(OC)c1OC | 6.8 | 2.7 | 40 |  |  | 
5 | COc1cc(C(=O)N2CCO[C@@](CCN3CCC4(CC3)c3ccccc3C[C@@H]4O)(c3ccc(Cl)c(Cl)c3)C2)cc(OC)c1OC | > 1000 | > 1000 | > 1000 |  |  | 
6 | COc1cc(C(=O)N2CCO[C@](CCN3CCC4(CC3)c3ccccc3C[C@H]4O)(c3ccc(Cl)c(Cl)c3)C2)cc(OC)c1OC | 45 | 17 | 270 |  |  | 
7 | COc1cc(C(=O)N2CCOC(CCN3CCC4(CC3)c3ccccc3C[S+]4[O-])(c3ccc(Cl)c(Cl)c3)C2)cc(OC)c1OC.Cl (configuration not stated) |  |  |  | 0.063 | 0.04 | 0.33
8 | COc1cc(C(=O)N2CCO[C@@](CCN3CCC4(CC3)c3ccccc3C[S@@+]4[O-])(c3ccc(Cl)c(Cl)c3)C2)cc(OC)c1OC (racemic) | > 1000 | 660 | > 1000 |  |  | 
9 | COc1cc(C(=O)N2CCO[C@@](CCN3CCC4(CC3)c3ccccc3C[C@H]4O)(c3ccc(Cl)c(Cl)c3)C2)cc(OC)c1OC (racemic) | > 1000 | > 1000 | > 1000 |  |  | 
